Values quoted from earlier work, collected in US10231995B2, “Selenium-containing compositions and uses thereof” (SELO MEDICAL GMBH, priority 2001, dated 2019).
Read-outs that look alike come from different tables or passages of the source.

SMILES: O=[Se](O)O [selenite]
- Eo standard redox potential (acidic medium): −0.740 (acidic medium) Volt
- Eo standard redox potential (basic medium): +0.366 (basic medium) Volt
